Measurements taken from patent publication US20230365589A1, “NOVEL AMINE DERIVATIVES” (Sumitomo Pharma Co., Ltd., priority 2020, published 2023).
pIC50: −log10 of the molar value. Where two headings read alike, the source gives them in different places.

How the values were obtained:
Type in all cases: biochemical
DYRK3 = biological target: T1, DYRK3 (Homo sapiens, UniProt O43781); experiment: Inhibition test on activity of DYRK family, mobility shift assay (MSA): DYRK3
T1 construct: purchased Carna Biosciences, Inc. 04-133
T1 sequence (O43781 1-568 isoform O43781-2): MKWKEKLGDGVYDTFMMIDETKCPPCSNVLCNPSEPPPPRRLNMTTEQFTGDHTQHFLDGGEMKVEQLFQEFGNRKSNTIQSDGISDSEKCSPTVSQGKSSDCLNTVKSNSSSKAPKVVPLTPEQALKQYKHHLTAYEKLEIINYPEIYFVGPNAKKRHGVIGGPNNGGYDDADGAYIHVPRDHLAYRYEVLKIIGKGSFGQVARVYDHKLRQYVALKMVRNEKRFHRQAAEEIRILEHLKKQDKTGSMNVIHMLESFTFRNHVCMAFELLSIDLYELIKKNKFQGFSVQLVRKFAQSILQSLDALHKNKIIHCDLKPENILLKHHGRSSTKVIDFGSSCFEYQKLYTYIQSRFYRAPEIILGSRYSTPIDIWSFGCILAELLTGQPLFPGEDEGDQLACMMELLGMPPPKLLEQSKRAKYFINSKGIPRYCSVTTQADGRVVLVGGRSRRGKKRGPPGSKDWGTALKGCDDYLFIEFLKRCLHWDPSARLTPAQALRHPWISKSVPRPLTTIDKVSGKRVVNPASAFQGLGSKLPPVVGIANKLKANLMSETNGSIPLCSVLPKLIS
Procedure, shortened: (§1)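 Mobility-shift readout of FITC-DYRKtide phosphorylation in 20 mM HEPES pH 7.5. The substrate mix held 4 µM peptide, 20 mM MgCl2 and ATP at 100 (1A), 200 (1B), 40 (2) or 20 µM (3). Reaction 1 h at room temperature; IC50 from regression of P/(P+S)-based inhibition vs log concentration.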

DYRK2 = biological target: T2, DYRK2 (Homo sapiens, UniProt Q92630); experiment: Inhibition test on activity of DYRK family, mobility shift assay (MSA): DYRK2
T2 construct: purchased Carna Biosciences, Inc. 04-132
T2 sequence (Q92630 74-601 limits assumed): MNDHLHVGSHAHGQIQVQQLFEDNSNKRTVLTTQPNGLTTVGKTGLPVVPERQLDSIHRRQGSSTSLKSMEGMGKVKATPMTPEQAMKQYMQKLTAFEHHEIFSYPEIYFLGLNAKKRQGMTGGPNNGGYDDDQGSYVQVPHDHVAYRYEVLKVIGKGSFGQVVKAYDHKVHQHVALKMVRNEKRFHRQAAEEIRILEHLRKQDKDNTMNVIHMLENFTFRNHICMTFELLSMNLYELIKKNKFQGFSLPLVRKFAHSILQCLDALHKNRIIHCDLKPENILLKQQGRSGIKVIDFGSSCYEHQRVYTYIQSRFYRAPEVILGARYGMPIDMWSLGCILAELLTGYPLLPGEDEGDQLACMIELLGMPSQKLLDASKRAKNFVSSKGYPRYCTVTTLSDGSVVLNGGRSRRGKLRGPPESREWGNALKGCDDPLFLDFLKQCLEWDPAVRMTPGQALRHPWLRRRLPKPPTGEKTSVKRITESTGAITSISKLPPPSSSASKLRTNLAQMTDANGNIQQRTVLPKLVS
Procedure, shortened: as §1

DYRK1B = biological target: T3, DYRK1B (Homo sapiens, UniProt Q9Y463); experiment: Inhibition test on activity of DYRK family, mobility shift assay (MSA): DYRK1B; details: MSA, FITC-labeled DYRKtide peptide, ATP 200 μM; read-out: Inhibitory activity DYRK 1B (IC50 class)
T3 construct: purchased Carna Biosciences, Inc. 04-131
T3 sequence (Q9Y463 whole entry): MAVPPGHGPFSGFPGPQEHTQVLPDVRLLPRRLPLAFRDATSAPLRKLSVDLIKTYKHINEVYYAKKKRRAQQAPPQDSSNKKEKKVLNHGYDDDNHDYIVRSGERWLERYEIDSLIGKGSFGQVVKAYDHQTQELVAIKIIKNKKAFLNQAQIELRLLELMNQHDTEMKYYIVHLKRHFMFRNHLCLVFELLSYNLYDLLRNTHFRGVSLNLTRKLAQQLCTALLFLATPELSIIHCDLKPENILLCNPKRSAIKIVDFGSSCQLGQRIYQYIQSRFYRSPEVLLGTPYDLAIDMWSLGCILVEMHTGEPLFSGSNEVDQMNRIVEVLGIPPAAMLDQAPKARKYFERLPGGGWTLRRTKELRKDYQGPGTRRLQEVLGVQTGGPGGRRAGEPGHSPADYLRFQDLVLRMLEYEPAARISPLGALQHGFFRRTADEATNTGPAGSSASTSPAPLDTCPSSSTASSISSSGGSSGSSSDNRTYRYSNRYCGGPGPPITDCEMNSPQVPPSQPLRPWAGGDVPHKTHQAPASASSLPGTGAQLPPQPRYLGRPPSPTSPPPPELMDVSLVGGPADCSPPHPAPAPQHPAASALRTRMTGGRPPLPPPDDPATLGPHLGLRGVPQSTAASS
Description: [Inhibition Test on Activity of DYRK Family (DYRK1A, DYRK1B, DYRK2, and DYRK3)]
The kinase activity was measured by mobility shift assay (MSA) method using QuickScout Screening Assist™ MSA (commercially available kit manufactured by Carna Biosciences, Inc.). The substrate of the kinase reaction used was an FITC-labeled DYRKtide peptide included in the kit. An assay buffer [20 mM HEPES, 0.01% Triton X-100™, 2 mM dithiothreitol, pH 7.5]was used to create a substrate mixture solution with a substrate (4 μM), MgCl2(20 mM), and ATP (DYRK1A: 100 μM; DYRK1B: 200 μM; DYRK2: 40 μM; and DYRK3: 20 μM). In addition, kinases (DYRK1A: manufactured by Carna Biosciences, Inc., Cat. No. 04-130; DYRK1B: manufactured by Carna Biosciences, Inc., Cat. No. 04-131; DYRK2; manufactured by Carna Biosciences, Inc., Cat. No. 04-132; and DYRK3; manufactured by Carna Biosciences, Inc., Cat. No. 04-133) were diluted with the assay buffer to prepare enzyme solutions (DYRK1A: 0.2 ng/μL; DYRK1B: 0.08 ng/μL; DYRK2: 0.04 ng/μL; and DYRK3: 0.25 ng/μL). The 10 mM solution of the test compound in DMSO was further diluted with DMSO to 10 levels of the concentration (0.00003 mM, 0.0001 mM, 0.0003 mM, 0.001 mM, 0.003 mM, 0.01 mM, 0.03 mM, 0.1 mM, 0.3 mM, and 1 mM), each of which was subjected to 25-fold dilution with the assay buffer to obtain a drug solution (4% DMSO solution). 5 μL of the drug solution or a control solution (4% DMSO-assay buffer), 5 μL of the substrate mixture solution, and 10 μL of the enzyme solution were mixed in the wells of a polypropylene 384-well plate and allowed to react at room temperature for 1 hour, and then the reaction was quenched by adding 60 μL of the termination buffer included in the kit. Subsequently, the quantities of the substrates (S) and the phosphorylated substrate (P) in the reaction solution were measured using LabChip EZ Reader II system (manufactured by Caliper Life Sciences) according to the protocol of the assay kit.
The heights of the peaks of the “substrate” and the “phosphorylated substrate” were expressed as S and P, respectively, and a blank containing the assay buffer instead of the enzyme solution was also measured.
The inhibition rate (%) of the test compound was calculated according to the following equation:
Inhibition rate (%)=(1−(C−A)/(B−A))×100 • wherein, A, B, and C represent P/(P+S) of the blank well, P/(P+S) of the control solution well, and P/(P+S) of the compound-containing well, respectively.
The IC50 value was calculated via a regression analysis of the inhibition rate and the test compound concentration (logarithmic value).
The inhibiting activities of representative compounds of the present invention are shown against DYRK1A, DYRK1B, DYRK2, and DYRK3 in Tables.

DYRK1A = biological target: T4, DYRK1A (Homo sapiens, UniProt Q13627); experiment: Inhibition test on activity of DYRK family, mobility shift assay (MSA): DYRK1A
T4 construct: purchased Carna Biosciences, Inc. 04-130
Procedure, shortened: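 Mobility shift assay with recombinant DYRK1A (0.2 ng/μL enzyme solution), FITC-DYRKtide substrate (4 μM in substrate mix), 100 μM ATP in substrate mix, HEPES pH 7.5 buffer with MgCl2; 1 h at room temperature. Phosphorylated vs unphosphorylated peptide peaks quantified; IC50 from regression of inhibition rate against log concentration.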

[1] = MSA, FITC-labeled DYRKtide peptide, ATP 20 μM, read-out: Inhibitory activity DYRK 3 (IC50 class)
[2] = MSA, FITC-labeled DYRKtide peptide, ATP 40 μM, read-out: Inhibitory activity DYRK 2 (IC50 class)
[3] = MSA, FITC-labeled DYRKtide peptide, ATP 100 μM, read-out: Inhibitory activity DYRK 1A (IC50 class)
[4] = read-out: Inhibitory activity DYRK 3
[5] = read-out: Inhibitory activity DYRK 1A
[6] = read-out: Inhibitory activity DYRK 2

Row | pIC50 (DYRK3; [1]) | pIC50 (DYRK2; [2]) | pIC50 (DYRK1B) | pIC50 (DYRK1A; [3]) | pIC50 (DYRK3; [4]) | pIC50 (DYRK1A; [5]) | pIC50 (DYRK2; [6]) | Structure (SMILES)
1 | ≤ 6.00 | ≤ 6.00 |  | 7.00 to 8.00 |  |  |  | CC(C)N1CC[C@H]2NC(=O)N(c3nc4c5c(ccc4s3)OCC5)[C@H]2C1 (relative stereo) [Example 15, cis-3-(7,8-dihydrofuro[3,2-e][1,3]benzothiazol-2-yl)-5-(propan-2-yl)octahydro-2H-imidazo[4,5-c]pyridin-2-one]
2 | 7.00 to 8.00 | 7.00 to 8.00 |  | > 8.00 |  |  |  | O=C1C[C@@H]2[C@H](CO1)NC(=O)N2c1nc2c3c(ccc2s1)OCC3 [Example 152]
3 | 6.00 to 7.00 | ≤ 6.00 |  | 6.00 to 7.00 |  |  |  | O=C1N[C@H]2CC3(CC3)NC[C@H]2N1c1nc2c3c(ccc2s1)OCC3 [Example 57]
4 |  |  |  |  | 6.00 to 7.00 | 7.00 to 8.00 | 6.00 to 7.00 | O=C1N[C@@H]2CCOC[C@H]2N1c1nc2c3c(ccc2s1)OCC3 [Example 125]
5 | 7.00 to 8.00 | 7.00 to 8.00 |  | > 8.00 |  |  |  | O=C1N[C@H]2COC[C@H]2N1c1nc2c3c(ccc2s1)OCC3 [Example 65, (3aR,6aS)-1-(7,8-dihydrofuro[3,2-e][1,3]benzothiazol-2-yl)tetrahydro-1H-furo[3,4-d]imidazol-2(3H)-one]
6 | 6.00 to 7.00 | ≤ 6.00 |  | 7.00 to 8.00 |  |  |  | O=C1N[C@H]2CCNC[C@H]2N1c1nc2c3c(ccc2s1)OCC3 (relative stereo) [Example 1, cis-3-(7,8-Dihydrofuro[3,2-e][1,3]benzothiazol-2-yl)octahydro-2H-imidazo[4,5-c]pyridin-2-one]

The remaining lines, values behind:

Row | Structure (SMILES) | pIC50 (DYRK3; [1]) | pIC50 (DYRK2; [2]) | pIC50 (DYRK1B) | pIC50 (DYRK1A; [3]) | pIC50 (DYRK3; [4]) | pIC50 (DYRK1A; [5]) | pIC50 (DYRK2; [6])
7 | O=C1N[C@H]2CO[C@H](CO)[C@H]2N1c1nc2c3c(ccc2s1)OCC3 [Example 157, (3aR,6S,6aS)-1-(7,8-dihydrofuro[3,2-e][1,3]benzothiazol-2-yl)-6-(hydroxymethyl)tetrahydro-1H-furo[3,4-d]imidazol-2(3H)-one] | 6.00 to 7.00 | 6.00 to 7.00 | 7.00 to 8.00 |  |  |  | 
8 | O=C1N[C@H]2CO[C@@H](CF)C[C@H]2N1c1nc2c3c(ccc2s1)OCC3 [Example 40, (3aR,6R,7aR)-1-(7,8-dihydrofuro[3,2-e][1,3]benzothiazol-2-yl)-6-(fluoromethyl)hexahydropyrano[3,4-d]imidazol-2(3H)-one] | 7.00 to 8.00 | 6.00 to 7.00 | > 8.00 | > 8.00 |  |  | 
9 | N#CC[C@H]1OC[C@@H]2NC(=O)N(c3nc4c5c(ccc4s3)OCC5)[C@@H]21 [Example 162, [(3aS,4R,6aR)-3-(7,8-Dihydrofuro[3,2-e][1,3]benzothiazol-2-yl)-2-oxohexahydro-1H-furo[3,4-d]imidazol-4-yl]acetonitrile] | 6.00 to 7.00 | 6.00 to 7.00 | 7.00 to 8.00 |  |  |  | 
10 | COC(=O)[C@H]1C[C@@H]2[C@H](CO1)NC(=O)N2c1nc2c3c(ccc2s1)OCC3 [Example 141] | ≤ 6.00 | ≤ 6.00 |  | 7.00 to 8.00 |  |  | 
11 | O=C1N[C@H]2CO[C@@H](CO)C[C@H]2N1c1nc2c3c(ccc2s1)OCO3 [Example 147, (3aR,6R,7aR)-1-(2H-[1,3]dioxolo[4,5-e][1,3]benzothiazol-7-yl)-6-(hydroxymethyl)hexahydropyrano[3,4-d]imidazol-2(3H)-one] | 6.00 to 7.00 | ≤ 6.00 |  | > 8.00 |  |  | 
12 | C[C@H]1[C@H]2[C@@H](CCN1C)NC(=O)N2c1nc2c3c(ccc2s1)OCC3 [Example 95] |  |  |  |  | 6.00 to 7.00 | 6.00 to 7.00 | 6.00 to 7.00
13 | CN1CC[C@@H]2[C@H](C1)NC(=O)N2c1nc2c3c(ccc2s1)OCCO3 (racemic) [Example 77, rac-(3aR,7aS)-1-(7,8-dihydro[1,4]dioxino[2,3-e][1,3]benzothiazol-2-yl)-5-methyloctahydro-2H-imidazo[4,5-c]pyridin-2-one] | 6.00 to 7.00 | ≤ 6.00 |  | 7.00 to 8.00 |  |  | 
14 | C[C@@H]1NC(=O)N(c2nc3c4c(ccc3s2)OCC4)[C@@H]1CN(C)C [Example 25] | ≤ 6.00 | ≤ 6.00 |  | 7.00 to 8.00 |  |  | 
15 | O=C1N[C@@H]2CCN(C3CC3)C[C@@H]2N1c1nc2c3c(ccc2s1)OCCO3 (relative stereo) [Example 31, cis-5-Cyclopropyl-3-(7,8-dihydro[1,4]dioxino[2,3-e][1,3]benzothiazol-2-yl)octahydro-2H-imidazo[4,5-c]pyridin-2-one] | ≤ 6.00 | ≤ 6.00 |  | > 8.00 |  |  | 
16 | O=C1N[C@H]2CCCN(C3COC3)C[C@H]2N1c1nc2c3c(ccc2s1)OCC3 (racemic) [Example 73, rac-(3aR,8aS)-3-(7,8-dihydrofuro[3,2-e][1,3]benzothiazol-2-yl)-5-(oxetan-3-yl)octahydroimidazo[4,5-c]azepin-2(1H)-one] | ≤ 6.00 | 6.00 to 7.00 |  | > 8.00 |  |  | 
17 | O=C1N[C@H]2CO[C@@H](CO)C[C@H]2N1c1nc2c3c(ccc2s1)OCCO3 [Example 146, (3aR,6R, 7aR)-1-(7,8-dihydro[1,4]dioxino[2,3-e][1,3]benzothiazol-2-yl)-6-(hydroxymethyl)hexahydropyrano[3,4-d]imidazol-2(3H)-one] | 6.00 to 7.00 | ≤ 6.00 |  | > 8.00 |  |  | 
18 | CO[C@H]1C[C@H]2NC(=O)N(c3nc4c5c(ccc4s3)OCC5)[C@H]2CO1 [Example 130] |  |  |  |  | ≤ 6.00 | 6.00 to 7.00 | ≤ 6.00
